The text below walks through data of paper PMC11873939, “Target Identification with Live-Cell Photoaffinity Labeling and Mechanism of Action Elucidation of ARN23765, a Highly Potent CFTR Corrector” (Journal of Medicinal Chemistry, 2025).

The structures appear in SMILES notation.

The target in test [1] is T1, F508del-CFTR double mutants (K68I, N71I, R74A, F81A, A198Y, W361A, S364F) (Homo sapiens, UniProt P13569, DEL508-508/N71I).
T1 construct: CFTR identification in pull-down studies and analysis of full-length CFTR in protein maturation assays; expressed in transfected cells; host or cells: HEK293 (transient, pCDNA3.1 constructs, JetPEI)
Nature of the test: Protein maturation assay (WB) of F508del-CFTR double mutants in transfected HEK293 cells. It is filed as cell-based. As to conditions: F508del/N71I-CFTR; HEK293, 10 nM, 24 h. The procedure:
(§1) To confirm in cells the above-predicted binding site for ARN23765, we introduced the investigated single-site mutations into the F508del-CFTR coding sequence. The rescue of double mutant proteins (F508del + new mutation) by ARN23765 was assessed with WB analysis of protein maturation and evaluation of channel activity (FLIPR assay)[40] in transfected HEK293 cells. Since correctors 3151 (type II)[16] and VX-445 (type III)[18] have been reported to bind to different CFTR sites, we used these compounds as controls. As expected, ARN23765-induced maturation of F508del-CFTR was not affected by the N71I substitution. […] Indeed, the corrector was no longer able to promote protein maturation (Figure 9A and S8A). […] The results of protein maturation analysis were mostly confirmed by functional data (Figure 9B and S8B), in which the channel activity of double-mutated proteins was evaluated in terms of the change in cell membrane potential change (FLIPR assay).
(§2) HEK293 cells were plated in 24-wells at around 80% of confluence and transfected with constructs coding for F508del-CFTR or mutants using JetPEI reagent (101000053, Polyplus Technology) following the manufacturer’s instructions. After 24 h, the correctors were added for a further 24 h. Correctors were used at the following concentrations: ARN23765 (10 nM), VX-445 (3 μM), and 3151 (10 μM). For binding site analysis experiments, the cells were kept either at 37 °C (Figure S8) or moved to 30 °C (Figure 9) during incubation with the selected correctors. VX-445 and corrector 3151 were mixed together as a control for maximal protein correction. DMSO (0.2%) was added to nontreated controls. After treatment, cells were lysed in RIPA buffer [50 mM tris-HCl pH 8, 150 mM NaCl, 1% NP40, 0.5% sodium deoxycolate, 0.1% SDS, 2.0 mM EDTA] and lysates were analyzed with WB, as described in the supplementary methods of the Supporting Information. […]
(§3) Site-directed mutagenesis
(§4) Desired mutations were introduced using the QuikChange II XL site-directed mutagenesis kit (200522,
(§5) Agilent Technologies) according to the manufacturer’s instructions. F508del-CFTR pCDNA3.1 was used
(§6) as a template for the synthesis of mutated constructs K68I/F508del-CFTR, N71I/F508del-CFTR,
(§7) S364F/F508del-CFTR. The introduction of the mutation and the whole CFTR sequence were checked by
(§8) Sanger sequencing. Mutants R1070W/F508del-CFTR and R170G-
(§9) CFTR were produced as previously described.4

In test [2] the target is T2, F508del-CFTR double mutants (K68I, N71I, R74A, F81A, A198Y, W361A, S364F) (Homo sapiens, UniProt P13569, DEL508-508/W361A).
T2 construct: CFTR identification in pull-down studies and analysis of full-length CFTR in protein maturation assays; expressed in transfected cells; host or cells: HEK293 (transient, pCDNA3.1 constructs, JetPEI)
Described as above. The conditions noted are these: F508del/W361A-CFTR; HEK293, 10 nM, 24 h. It is filed as cell-based. The procedure:
as §1, §2, §3, §4, §5, §6, §7, §8, §9

Test [3] has as its target T3, F508del-CFTR double mutants (K68I, N71I, R74A, F81A, A198Y, W361A, S364F) (Homo sapiens, UniProt P13569, A198Y/DEL508-508).
T3 construct: CFTR identification in pull-down studies and analysis of full-length CFTR in protein maturation assays; expressed in transfected cells; host or cells: HEK293 (transient, pCDNA3.1 constructs, JetPEI)
The test is described as above. Type of test: cell-based. The conditions noted are these: F508del/A198Y-CFTR; HEK293, 10 nM, 24 h. The protocol: as §1, §2, §3, §4, §5, §6, §7, §8, §9

The target in test [4] is T4, F508del-CFTR double mutants (K68I, N71I, R74A, F81A, A198Y, W361A, S364F) (Homo sapiens, UniProt P13569, DEL508-508/K68I).
T4 construct: CFTR identification in pull-down studies and analysis of full-length CFTR in protein maturation assays; expressed in transfected cells; host or cells: HEK293 (transient, pCDNA3.1 constructs, JetPEI)
Described as above. Type of test: cell-based. The conditions noted are these: F508del/K68I-CFTR; HEK293, 10 nM, 24 h. The procedure:
as §1, §2, §3, §4, §5, §6, §7, §8, §9

Test [5] deals with T5, F508del-CFTR double mutants (K68I, N71I, R74A, F81A, A198Y, W361A, S364F) (Homo sapiens, UniProt P13569, DEL508-508/R74A).
T5 construct: CFTR identification in pull-down studies and analysis of full-length CFTR in protein maturation assays; expressed in transfected cells; host or cells: HEK293 (transient, pCDNA3.1 constructs, JetPEI)
The description is as above. The conditions noted are these: F508del/R74A-CFTR; HEK293, 10 nM, 24 h. Type of test: cell-based. The protocol:
as §1, §2, §3, §4, §5, §6, §7, §8, §9

In test [6] the target is T6, F508del-CFTR double mutants (K68I, N71I, R74A, F81A, A198Y, W361A, S364F) (Homo sapiens, UniProt P13569, DEL508-508/S364F).
T6 construct: CFTR identification in pull-down studies and analysis of full-length CFTR in protein maturation assays; expressed in transfected cells; host or cells: HEK293 (transient, pCDNA3.1 constructs, JetPEI)
Described as above. Type of test: cell-based. The conditions noted are these: F508del/S364F-CFTR; HEK293, 10 nM, 24 h. The protocol: as §1, §2, §3, §4, §5, §6, §7, §8, §9

For test [7], the target named is T7, F508del-CFTR double mutants (K68I, N71I, R74A, F81A, A198Y, W361A, S364F) (Homo sapiens, UniProt P13569, DEL508-508/F81A).
T7 construct: CFTR identification in pull-down studies and analysis of full-length CFTR in protein maturation assays; expressed in transfected cells; host or cells: HEK293 (transient, pCDNA3.1 constructs, JetPEI)
The test is described as above. It is filed as cell-based. As to conditions: F508del/F81A-CFTR; HEK293, 10 nM, 24 h. The procedure:
as §1, §2, §3, §4, §5, §6, §7, §8, §9

The test system of another test is CFTR. Details: method as in PMID 32128418. The conditions noted are these: HS-YFP assay; cited from earlier work.

T1 sequence (P13569 with tags, fused parts or gaps N71I/DEL508-508): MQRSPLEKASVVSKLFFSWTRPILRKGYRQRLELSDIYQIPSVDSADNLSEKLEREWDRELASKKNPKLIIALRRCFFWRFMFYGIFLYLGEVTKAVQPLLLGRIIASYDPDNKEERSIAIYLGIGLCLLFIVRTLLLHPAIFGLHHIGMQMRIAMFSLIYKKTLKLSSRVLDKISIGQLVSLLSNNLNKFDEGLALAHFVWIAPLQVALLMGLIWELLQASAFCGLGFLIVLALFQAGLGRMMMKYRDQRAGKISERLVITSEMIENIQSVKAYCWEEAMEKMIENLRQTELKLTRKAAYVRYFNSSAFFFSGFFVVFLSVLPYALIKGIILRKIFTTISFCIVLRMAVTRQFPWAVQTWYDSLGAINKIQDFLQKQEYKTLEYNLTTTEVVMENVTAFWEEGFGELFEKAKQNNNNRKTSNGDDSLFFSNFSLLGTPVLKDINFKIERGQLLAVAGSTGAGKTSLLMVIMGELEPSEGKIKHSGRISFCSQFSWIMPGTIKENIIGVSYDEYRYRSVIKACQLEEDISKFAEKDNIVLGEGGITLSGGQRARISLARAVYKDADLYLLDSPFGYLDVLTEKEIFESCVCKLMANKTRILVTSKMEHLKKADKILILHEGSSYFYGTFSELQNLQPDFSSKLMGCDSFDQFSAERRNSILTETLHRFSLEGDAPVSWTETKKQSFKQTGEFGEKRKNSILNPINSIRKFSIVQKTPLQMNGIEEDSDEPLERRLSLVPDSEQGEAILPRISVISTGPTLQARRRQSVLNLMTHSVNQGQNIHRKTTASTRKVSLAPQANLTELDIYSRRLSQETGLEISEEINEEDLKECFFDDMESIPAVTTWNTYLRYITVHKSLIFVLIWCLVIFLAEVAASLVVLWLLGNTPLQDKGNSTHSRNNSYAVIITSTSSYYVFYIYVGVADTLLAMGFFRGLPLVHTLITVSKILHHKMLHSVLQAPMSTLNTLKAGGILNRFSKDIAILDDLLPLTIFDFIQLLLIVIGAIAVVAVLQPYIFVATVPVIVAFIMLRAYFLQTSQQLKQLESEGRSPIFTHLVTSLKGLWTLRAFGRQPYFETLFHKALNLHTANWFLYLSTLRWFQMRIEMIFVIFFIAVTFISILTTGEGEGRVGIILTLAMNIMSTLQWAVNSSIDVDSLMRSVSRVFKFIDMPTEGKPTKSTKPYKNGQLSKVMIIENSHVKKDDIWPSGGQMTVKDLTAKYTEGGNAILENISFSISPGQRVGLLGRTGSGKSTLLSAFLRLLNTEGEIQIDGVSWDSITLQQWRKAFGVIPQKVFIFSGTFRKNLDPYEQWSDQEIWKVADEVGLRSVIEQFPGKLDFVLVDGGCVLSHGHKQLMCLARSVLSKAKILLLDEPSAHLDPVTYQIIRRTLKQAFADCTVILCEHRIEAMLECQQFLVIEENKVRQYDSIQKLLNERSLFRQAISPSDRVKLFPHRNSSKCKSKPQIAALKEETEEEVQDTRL
T5 sequence (P13569 with tags, fused parts or gaps R74A/DEL508-508): as the sequence (P13569 with tags, fused parts or gaps N71I/DEL508-508) above, with I71N, R74A counted along it
T3 sequence (P13569 with tags, fused parts or gaps A198Y/DEL508-508): as the sequence (P13569 with tags, fused parts or gaps N71I/DEL508-508) above, with I71N, A198Y counted along it
T4 sequence (P13569 with tags, fused parts or gaps K68I/DEL508-508): as the sequence (P13569 with tags, fused parts or gaps N71I/DEL508-508) above, with K68I, I71N counted along it
T7 sequence (P13569 with tags, fused parts or gaps F81A/DEL508-508): as the sequence (P13569 with tags, fused parts or gaps N71I/DEL508-508) above, with I71N, F81A counted along it
T2 sequence (P13569 with tags, fused parts or gaps W361A/DEL508-508): as the sequence (P13569 with tags, fused parts or gaps N71I/DEL508-508) above, with I71N, W361A counted along it
T6 sequence (P13569 with tags, fused parts or gaps S364F/DEL508-508): as the sequence (P13569 with tags, fused parts or gaps N71I/DEL508-508) above, with I71N, S364F counted along it

For `CN(C(=O)c1cccc(-n2nc(C(F)(F)F)c3c2[C@@H](Oc2ccc(C(=O)O)cc2)CCC3)c1)c1ccc2c(c1)OC(F)(F)O2` [ARN23765], the “Effect of second mutation on corrector-induced maturation of F508del-CFTR” value was “not affected” in test [1]; “markedly reduced or abolished” in test [2]; “markedly reduced or abolished” in test [3]; “only slightly reduced” in test [5]; “only slightly reduced” in test [6]; “markedly reduced or abolished” in test [7]. Also, the “Effect of second mutation on corrector-induced rescue of F508del-CFTR” value in test [4] is “no appreciable change”. In the test on CFTR, the “Effect on the protein gating” value is “no effect”.
